Test results from the NIST ThermoML archive (doi:10.1021/je049895b).

Experiment: xn = mol fraction of the nth substance listed
Conditions: 101.33 kPa, Liquid; for viscosity: Capillary tube (Ostwald / Ubbelohde) method

C1CCCC1 [cyclopentane] + CCOC(=O)OCC
Conditions | mass density [kg/m3] | speed of sound [m/s] | viscosity [mPa·s]
293.15 K, x2 = 0 | 744.43 | 1232 | 0.438
293.15 K, x2 = 0.0491 | 757.21 | 1219 | 0.44
293.15 K, x2 = 0.0999 | 770.43 | 1209 | 0.445
293.15 K, x2 = 0.1898 | 793.45 | 1196 | 0.462
293.15 K, x2 = 0.2872 | 817.88 | 1186 | 0.486
293.15 K, x2 = 0.3894 | 842.77 | 1180 | 0.518
293.15 K, x2 = 0.5009 | 868.92 | 1178 | 0.559
293.15 K, x2 = 0.6023 | 891.92 | 1179 | 0.601
293.15 K, x2 = 0.7021 | 913.9 | 1181 | 0.646
293.15 K, x2 = 0.8053 | 935.69 | 1186 | 0.696
293.15 K, x2 = 0.9032 | 955.62 | 1191 | 0.748
293.15 K, x2 = 0.952 | 965.36 | 1194 | 0.778
298.15 K, x2 = 0 | 739.47 | 1206 | 0.415
298.15 K, x2 = 0.0491 | 752.18 | 1194 | 0.416
298.15 K, x2 = 0.0999 | 765.34 | 1184 | 0.421
298.15 K, x2 = 0.1898 | 788.24 | 1172 | 0.437
298.15 K, x2 = 0.2872 | 812.58 | 1163 | 0.459
298.15 K, x2 = 0.3894 | 837.37 | 1157 | 0.489
298.15 K, x2 = 0.5009 | 863.47 | 1156 | 0.527
298.15 K, x2 = 0.6023 | 886.43 | 1157 | 0.564
298.15 K, x2 = 0.7021 | 908.38 | 1160 | 0.606
298.15 K, x2 = 0.8053 | 930.14 | 1165 | 0.654
298.15 K, x2 = 0.9032 | 950.04 | 1170 | 0.699
298.15 K, x2 = 0.952 | 959.78 | 1174 | 0.726
303.15 K, x2 = 0 | 734.47 | 1180 | 0.394
303.15 K, x2 = 0.0491 | 747.11 | 1169 | 0.396
303.15 K, x2 = 0.0999 | 760.19 | 1159 | 0.399
303.15 K, x2 = 0.1898 | 782.99 | 1147 | 0.414
303.15 K, x2 = 0.2872 | 807.23 | 1139 | 0.435
303.15 K, x2 = 0.3894 | 831.95 | 1134 | 0.461
303.15 K, x2 = 0.5009 | 857.97 | 1133 | 0.496
303.15 K, x2 = 0.6023 | 880.91 | 1135 | 0.532
303.15 K, x2 = 0.7021 | 902.82 | 1138 | 0.57
303.15 K, x2 = 0.8053 | 924.56 | 1144 | 0.615
303.15 K, x2 = 0.9032 | 944.44 | 1150 | 0.655
303.15 K, x2 = 0.952 | 954.16 | 1153 | 0.68
308.15 K, x2 = 0 | 729.42 | 1154 | 0.374
308.15 K, x2 = 0.0491 | 741.99 | 1144 | 0.375
308.15 K, x2 = 0.0999 | 755 | 1134 | 0.379
308.15 K, x2 = 0.1898 | 777.7 | 1123 | 0.393
308.15 K, x2 = 0.2872 | 801.84 | 1115 | 0.412
308.15 K, x2 = 0.3894 | 826.49 | 1112 | 0.436
308.15 K, x2 = 0.5009 | 852.45 | 1111 | 0.47
308.15 K, x2 = 0.6023 | 875.35 | 1113 | 0.502
308.15 K, x2 = 0.7021 | 897.23 | 1117 | 0.537
308.15 K, x2 = 0.8053 | 918.94 | 1123 | 0.578
308.15 K, x2 = 0.9032 | 938.8 | 1129 | 0.616
308.15 K, x2 = 0.952 | 948.52 | 1133 | 0.638
313.15 K, x2 = 0 | 724.32 | 1129 | 0.355
313.15 K, x2 = 0.0491 | 736.82 | 1119 | 0.356
313.15 K, x2 = 0.0999 | 749.76 | 1110 | 0.36
313.15 K, x2 = 0.1898 | 772.35 | 1099 | 0.373
313.15 K, x2 = 0.2872 | 796.39 | 1092 | 0.391
313.15 K, x2 = 0.3894 | 820.95 | 1089 | 0.414
313.15 K, x2 = 0.5009 | 846.9 | 1089 | 0.444
313.15 K, x2 = 0.6023 | 869.75 | 1091 | 0.475
313.15 K, x2 = 0.7021 | 891.61 | 1096 | 0.508
313.15 K, x2 = 0.8053 | 913.29 | 1102 | 0.545
313.15 K, x2 = 0.9032 | 933.14 | 1109 | 0.58
313.15 K, x2 = 0.952 | 942.85 | 1112 | 0.6

C1CCCC1 [cyclopentane] + COC(=O)OC
Conditions | mass density [kg/m3] | speed of sound [m/s] | viscosity [mPa·s]
293.15 K, x2 = 0 | 744.43 | 1232 | 0.438
293.15 K, x2 = 0.0453 | 755.75 | 1219 | 0.429
293.15 K, x2 = 0.0871 | 766.47 | 1209 | 0.419
293.15 K, x2 = 0.1847 | 792.72 | 1192 | 0.417
293.15 K, x2 = 0.2915 | 823.38 | 1180 | 0.421
293.15 K, x2 = 0.3937 | 854.33 | 1174 | 0.432
293.15 K, x2 = 0.4904 | 884.96 | 1172 | 0.449
293.15 K, x2 = 0.5988 | 920.84 | 1174 | 0.472
293.15 K, x2 = 0.6963 | 954.64 | 1180 | 0.497
293.15 K, x2 = 0.8033 | 993.39 | 1190 | 0.531
293.15 K, x2 = 0.9028 | 1031.4 | 1204 | 0.573
293.15 K, x2 = 0.9532 | 1051.09 | 1212 | 0.601
298.15 K, x2 = 0 | 739.47 | 1206 | 0.415
298.15 K, x2 = 0.0453 | 750.69 | 1193 | 0.406
298.15 K, x2 = 0.0871 | 761.31 | 1184 | 0.397
298.15 K, x2 = 0.1847 | 787.29 | 1168 | 0.396
298.15 K, x2 = 0.2915 | 817.76 | 1156 | 0.398
298.15 K, x2 = 0.3937 | 848.47 | 1150 | 0.408
298.15 K, x2 = 0.4904 | 878.98 | 1148 | 0.422
298.15 K, x2 = 0.5988 | 914.7 | 1151 | 0.444
298.15 K, x2 = 0.6963 | 948.41 | 1157 | 0.468
298.15 K, x2 = 0.8033 | 987.01 | 1168 | 0.5
298.15 K, x2 = 0.9028 | 1024.85 | 1182 | 0.538
298.15 K, x2 = 0.9532 | 1044.57 | 1190 | 0.565
303.15 K, x2 = 0 | 734.47 | 1180 | 0.394
303.15 K, x2 = 0.0453 | 745.58 | 1168 | 0.385
303.15 K, x2 = 0.0871 | 756.09 | 1158 | 0.377
303.15 K, x2 = 0.1847 | 781.98 | 1143 | 0.374
303.15 K, x2 = 0.2915 | 812.07 | 1131 | 0.377
303.15 K, x2 = 0.3937 | 842.65 | 1125 | 0.386
303.15 K, x2 = 0.4904 | 872.96 | 1124 | 0.4
303.15 K, x2 = 0.5988 | 908.54 | 1127 | 0.419
303.15 K, x2 = 0.6963 | 942.13 | 1134 | 0.441
303.15 K, x2 = 0.8033 | 980.64 | 1145 | 0.472
303.15 K, x2 = 0.9028 | 1018.17 | 1160 | 0.507
303.15 K, x2 = 0.9532 | 1038.01 | 1168 | 0.528
308.15 K, x2 = 0 | 729.42 | 1154 | 0.374
308.15 K, x2 = 0.0453 | 740.41 | 1142 | 0.366
308.15 K, x2 = 0.0871 | 750.83 | 1133 | 0.358
308.15 K, x2 = 0.1847 | 776.38 | 1118 | 0.355
308.15 K, x2 = 0.2915 | 806.36 | 1107 | 0.357
308.15 K, x2 = 0.3937 | 836.73 | 1102 | 0.366
308.15 K, x2 = 0.4904 | 866.91 | 1101 | 0.379
308.15 K, x2 = 0.5988 | 902.34 | 1105 | 0.397
308.15 K, x2 = 0.6963 | 935.82 | 1111 | 0.418
308.15 K, x2 = 0.8033 | 974.2 | 1123 | 0.446
308.15 K, x2 = 0.9028 | 1011.88 | 1138 | 0.478
308.15 K, x2 = 0.9532 | 1031.41 | 1146 | 0.501
313.15 K, x2 = 0 | 724.32 | 1129 | 0.355
313.15 K, x2 = 0.0453 | 735.2 | 1117 | 0.348
313.15 K, x2 = 0.0871 | 745.51 | 1108 | 0.341
313.15 K, x2 = 0.1847 | 770.82 | 1093 | 0.338
313.15 K, x2 = 0.2915 | 800.54 | 1083 | 0.338
313.15 K, x2 = 0.3937 | 830.73 | 1078 | 0.346
313.15 K, x2 = 0.4904 | 860.7 | 1078 | 0.358
313.15 K, x2 = 0.5988 | 896.1 | 1082 | 0.377
313.15 K, x2 = 0.6963 | 929.45 | 1089 | 0.397
313.15 K, x2 = 0.8033 | 967.7 | 1101 | 0.424
313.15 K, x2 = 0.9028 | 1005.28 | 1116 | 0.454
313.15 K, x2 = 0.9532 | 1024.79 | 1125 | 0.472
